This passage reports melting point results from a melting point compilation (Tetko et al.; mined from patent text by program, amines drawn as free bases though some values may be those of a salt).

Each structure is given as a SMILES string.

`CC(=O)c1ccc(Cl)c(S(N)(=O)=O)c1` gave a melting point of 175 to 176 °C.

As to `NC(=O)N1CC(Oc2ccc(Cl)cc2)C1`, the melting point lay within 187 to 188 °C.

`O=C(Nc1ccc(Cl)c(Cl)c1)c1c(O)c2ccccc2oc1=O` came in with a melting point of 227 to 228 °C.

For the compound `N#Cc1cc([N+](=O)[O-])ccc1N1CCN(Cc2ccccc2)CC1`, the melting point came to 124 °C.

The compound `Fc1ccc2ncc3ncn(-c4ccccc4F)c3c2c1` gave a melting point of 162 to 163 °C.

For the compound `CN1C(=O)C(C)(C)N=C(c2ccccc2F)c2cc(N)ccc21`, the melting point fell in the range of 190 to 191 °C.

The compound `CC1(C)SC2C(NC(=O)C(NC(=O)CBr)c3ccccc3)C(=O)N2C1c1nnn[nH]1` (configuration not stated) showed a melting point of 128 to 135 °C.

With `CN1C(=O)COc2c(C(=O)O)cc([N+](=O)[O-])cc21`, the melting point lay within 256 to 259 °C.

The compound `COc1cccc2c1CC(=O)CO2` gave a melting point of 53 to 54 °C.

The compound `COc1ccc(OCCCBr)c(C2Sc3ccccc3N(C)C2=O)c1` (single isomer, unassigned; (-)) registered a melting point of 77 to 78 °C.

The compound `c1ccc(CN2CCC3(C2)OC(c2ccccc2)c2ccccc23)cc1` (configuration not stated) yielded a melting point of 85 to 87 °C.

`Cc1ccc(C(=O)Nc2cc(N3CCOCC3)cc(C(F)(F)F)c2)cc1Nc1nccc(-c2cccnc2)n1` displayed a melting point of 208 to 211 °C.

`Cc1ccc(S(=O)(=O)Nc2c(C)c(C)c3c(c2C)CC(C)(C)O3)cc1` showed a melting point of 219 to 220 °C.

Regarding `CN=C(NC#N)NCCSCc1ccsn1`, the melting point fell in the range of 63 to 64 °C.

In the case of `O=C1C(O)=C(c2ccc3ccccc3c2)C(=O)C(O)=C1c1ccc2ccccc2c1`, the melting point lay in the range of 328 to 329 °C.

In the case of `CCCOc1nc(N)nc(-c2ccccc2)c1-c1ccc(=O)n(C(C)C)n1`, the melting point was in the range of 128 to 129 °C.

For `BrCCOc1ccc(Cn2cccn2)cc1`, the melting point is 63 to 65 °C.

`CCN1CCNS(=O)(=O)c2cc(Oc3ccccc3)ccc21` came in with a melting point of 138 °C.

The compound `CON(C)C(=O)c1ccc(-c2ccc(C)cc2)o1` came in with a melting point of 54 to 58 °C.

For `CCOCc1nc2c(N)nc3ccccc3c2n1CCCC(=O)N1CCOCC1`, the melting point is 201 to 203 °C.

For the compound `CCOC(=O)c1c(N)[nH]c2cc(OC)c(OC)cc12`, the melting point was 164 to 166 °C.

`COC(=O)c1sc(-c2ccc(OC)cc2)cc1NC(C)=O` came in with a melting point of 148 to 149 °C.

For the compound `CCCOc1ccnc2[nH]ccc12`, the melting point fell in the range of 189 to 191 °C.

Regarding `COc1cc2ccccc2c(C2NCCc3ccccc32)c1O` (configuration not stated), the melting point is 154 to 156 °C.

For `CS(=O)(=O)Nc1cccc(Nc2nc(OC3CCCC3)c3cc[nH]c3n2)c1`, the melting point is 203 to 205 °C.

For the compound `C1=C(c2ccncc2)CCC2(C1)OCCO2`, the melting point fell in the range of 67 to 70 °C.

Compound `CS(=O)(=O)OCC(C#N)(c1ccc(Cl)cc1)c1ccccc1Cl` (configuration not stated) yielded a melting point of 124 to 127 °C.

`CCOC(=O)c1cc2cc(CCNS(=O)(=O)c3ccc(Cl)cc3)ccc2o1` showed a melting point of 123 to 125 °C.

`O=c1ccc2c3ccccc3[nH]c2n1-c1ccccc1`: the melting point was 308 to 309 °C.

`COc1cccc(Oc2ccc([N+](=O)[O-])c(C(=O)O)c2)c1` had a melting point of 146 to 151 °C.

For the compound `CC(C)n1nc(-c2c(NC(=N)N)nc(N)nc2-c2ccccc2)ccc1=O`, the melting point lay within 272 to 274 °C.

As to `Cc1nc2ccc(Cl)nn2c1Br`, the melting point is 146 to 148 °C.

`CN(C)C(=O)C1N=C(c2ccccc2)c2cc(Cl)ccc2NC1=O` (configuration not stated): the melting point is 297 °C.

`OCc1cncn1Cc1ccccc1` returned a melting point of 131 to 135 °C.

The compound `O=[N+]([O-])c1c(OCc2ccccc2)ccnc1F` showed a melting point of 96 to 98 °C.

`O=S(=O)(c1ccc(S)cc1)c1ccc(S)cc1` had a melting point of 138 to 140 °C.

For the compound `Nc1ccc2c(C3=CN4CCC3CC4)c[nH]c2c1`, the melting point fell in the range of 65 to 67 °C.

As for `COC1(c2cc(F)cc(Sc3ccc(NC(C)=O)cc3)c2)CCN(CC(F)(F)F)C1` (configuration not stated), the melting point was 127 to 129 °C.

In turn, `Cc1nccn1-c1ccc(N)cc1C(F)(F)F` showed a melting point of 117 to 119 °C.

`CN1CCN(Cc2c(-c3ccc4sc(=O)n(C)c4c3)nc3ccccn23)CC1` yielded a melting point of 191 to 193 °C.

On to `O=C(Nc1cnc2ccc(Cl)cc2c1-c1ccccc1)Nc1c(F)cccc1F`, for which the melting point lay within 228 to 229 °C.

`COc1ccc(S(=O)(=O)CC(CS(=O)(=O)c2ccc(OC)cc2)C(=O)O)cc1` displayed a melting point of 174 to 175 °C.

As for `COCc1c(-c2ccccc2)ncc2[nH]c3ccc(OCc4ccccc4)cc3c12`, the melting point was 189 to 191 °C.

`COc1ccc2c(c1)OC(CNCCCOc1cc3ccccc3oc1=O)CO2` (configuration not stated) registered a melting point of 176 to 178 °C.

As for `O=C(Oc1ccc(Oc2ccccc2)cc1)N1CCC(CO)CC1`, the melting point lay within 71 to 74 °C.

As for `CCC(COCc1cccc(Cl)c1)n1cnc2c(N)nc3ccccc3c21` (configuration not stated), the melting point is 60 to 62 °C.

The compound `CC(C)C1=NC(NC(=O)CCc2ccc(Cl)cc2Cl)C(=O)N(C)c2ccccc21` (configuration not stated) showed a melting point of 173 to 174 °C.

In the case of `O=C(c1ccccc1)c1ccc2nc(C(F)(F)F)c(Br)nc2c1`, the melting point lay in the range of 152 to 154 °C.

As for `CC/C(=C\C=C\C(=O)Oc1ccc([N+](=O)[O-])cc1)c1ccc(OC)cc1`, the melting point fell in the range of 112 to 114 °C.

`CC(=C1SC(=O)NC1=O)c1ccc(SCCc2ccccc2)cc1` had a melting point of 183 to 187 °C.

`CCOc1ccc(C2=NN(C3CCN(C(=O)N4CCOCC4)CC3)C(=O)[C@@H]3CC=CC[C@H]23)cc1OCC` showed a melting point of 139 to 141 °C.

`COc1ccc2[nH]ncc2c1C`: the melting point lay within 148 to 149 °C.

In the case of `O=c1[nH]c2cc(Cl)ccc2c(O)c1-c1ccc2ccccc2c1`, the melting point is over 350 °C.

`Cc1ccc(C)c(C(=O)NCCC23CC4CC(CC(C4)C2)C3)c1`: the melting point is 153 °C.

In the case of `O=c1[nH]c2ncc(-c3ccn[nH]3)nc2n1CC1CCCCC1`, the melting point is 264 to 266 °C.

Compound `COc1cc(N)c(C)c(OC)c1OC` yielded a melting point of 49 to 51 °C.

Regarding `O=Cc1ccc(C=Cc2ccccc2)cc1`, the melting point fell in the range of 112 to 113 °C.

`COc1ccc(C(=O)Nc2ccccc2)cc1Nc1ccc(C2=NC(C)(C)CO2)cc1` showed a melting point of 221 to 222 °C.

Compound `COC(=O)CCCCCS(=O)c1ccc(-c2ccc(Cl)cc2)cc1` (configuration not stated) registered a melting point of 64 to 65 °C.

Compound `Nc1ccc(CC(=O)N2CCC(c3[nH]nc4c3C(=O)c3c(NC(=O)NN5CCOCC5)cccc3-4)CC2)cc1` showed a melting point of 177 to 179 °C.

Take `CC(=O)N(c1cc(N)c(F)cc1Cl)S(=O)(=O)CCl`: the melting point is 176 to 180 °C.

The compound `Nc1cc(I)c(I)cc1N` gave a melting point of 135 to 136 °C.

Compound `CS(=O)(=O)N1CCN2C(=O)N(c3cc(Cl)cc(Cl)c3)C(=O)C2(Cc2ccc(Br)cc2)C1` (configuration not stated) registered a melting point of 229 °C.

Consider `c1nc(NCCN2CCOCC2)c2sc3nc(N4CCOCC4)c4c(c3c2n1)CCOC4`, for which the melting point lay within 184 to 185 °C.

With `CS(=O)(=O)c1ccc(-c2c(-c3ccccc3)noc2C(F)F)cc1`, the melting point lay within 126 to 128 °C.

In turn, `OC(CS)(Cn1cncn1)c1ccc(F)cc1F` (configuration not stated) came in with a melting point of 112 to 113 °C.

With `Cc1oc(-c2ccccc2)nc1COc1cccc(COc2cc(Cl)ccc2C(=O)O)c1`, the melting point came out at 168 °C.

Compound `O=C1c2cccc3cccc(c23)C(=O)N1CCI` registered a melting point of 222 to 224 °C.

`CCCCn1c(=O)c(C(=O)O)c(-c2ccc(Br)cc2)c2cccnc21` registered a melting point of 158 to 160 °C.

`Cc1oc(-c2ccccc2)nc1COc1ccc(CCCc2nnn[nH]2)cn1` displayed a melting point of 137 to 138 °C.

`O=C(NC1CCC(CCN2CCC(c3cccc4c3CCO4)CC2)CC1)C1CCCO1` (racemic): the melting point stood at 160 °C.

Compound `Oc1c(C/C=C/c2ccc(OCc3ccccc3)c(OCc3ccccc3)c2)c(OCc2ccccc2)cc(OCc2ccccc2)c1Cc1ccccc1` had a melting point of 93 to 95 °C.

`CC(N(C(=O)c1ccc(C(F)(F)F)cc1)[C@H](C)C(=O)O)[C@](O)(Cn1cncn1)c1ccc(F)cc1F` (mixture of isomers) had a melting point of 219 to 221 °C.

For the compound `COc1cc(Cl)c2c(c1)C=C(C(=O)O)C(C(F)(F)F)O2` (configuration not stated), the melting point was 204 to 207 °C.

With `CC1(C)CC(=O)C2=C(C1)NC1=C(C(=O)CC(C)(C)C1)C2c1ccc(C(F)(F)F)c(F)c1`, the melting point was 296 to 300 °C.

As for `CC(C)C[C@H]1CN(Cc2ccccc2)C[C@@H]1C(=O)O`, the melting point is 236 to 239 °C.

Compound `O=C1c2cscc2Nc2ccccc2N1C1C=CCCC1` (configuration not stated) had a melting point of 147 to 149 °C.

With `CONC(=O)Nc1ccc(-c2sc3c(c2CCl)c(=O)n(-c2ccccc2)c(=O)n3Cc2c(F)cccc2F)cc1`, the melting point was in the range of 217 to 219 °C.

As to `COc1cccc(CCCC(=O)O)c1C`, the melting point was in the range of 105 to 107 °C.

`COc1ccc(-n2c(CF)nc3ccc(N)cc3c2=O)c(C)c1` returned a melting point of 200 to 202 °C.

`Oc1ccc(CBr)cc1-n1nc2ccccc2n1` displayed a melting point of 169 to 171 °C.

`CC(C)(C)C(=O)Oc1ccc(C(=O)CBr)cc1OC(=O)C(C)(C)C` had a melting point of 64 to 66 °C.

`CCn1c(=O)c2conc2n(C)c1=O` registered a melting point of 87 to 88 °C.

Compound `CC(=S)NC[C@H]1CN(c2ccc(N3CCC4(CC3)OCCO4)c(F)c2)C(=O)O1` showed a melting point of 141 to 143 °C.

In turn, `CC(C)Nc1nn(C)c(=O)c2cn(Cc3cccc4ccccc34)cc12` showed a melting point of 221 to 222 °C.

`COc1ccc2c(Nc3ccc(Cl)cc3F)c(C#N)cnc2c1` came in with a melting point of 208 to 210 °C.

As to `CC(=O)OC1CSC(OC(=N)C(Cl)(Cl)Cl)C(OC(C)=O)C1OC(C)=O` (configuration not stated), the melting point worked out at 110 °C.

`NC(=O)CNC(=O)CN1CCCC1=O` came in with a melting point of 147 to 148 °C.

On to `CNC1=NN(C(=O)C(C)(C)C)C(C)(C)S1`, for which the melting point was 162 to 164 °C.

For `CCOC(=O)COc1ccc(C(=O)c2ccoc2)c2ccccc12`, the melting point came out at 103 °C.

With `CONC(=O)COc1c(-c2ccccc2)c(=O)[nH]c2cc(Cl)ccc12`, the melting point lay within 205 to 207 °C.

The compound `Fc1cccc2nc(S)oc12` gave a melting point of 232 to 234 °C.

As usually defined, the melting point is the temperature, or range, at which the solid turns liquid.
